Entries after “also recorded” stand apart in the source; their conditions may differ. One block for each molecule: values may come before it. Non-standard residues stand in square brackets, D forms with d. 2Nal = N[C@@H](Cc1ccc2ccccc2c1)C(=O)O
Experiments:
[1] = target: T1, hGIIA binding to full length vimentin (Homo sapiens, UniProt P08670); test: Colorimetric enzyme immunoassay (EIA) of inhibitor effect on the hGIIA-vimentin interaction, full length vimentin; conditions: immobilised full length vimentin, hGIIA 250 ng/mL, inhibitors 5-100 μM, FIG. 2B top panel
T1 construct: His6 tag (HHHHHH) from pET15b (N); thrombin cleavage site (LVPRGS) (N); made in house; host or cells: vimentin: Rosetta 2 E. coli (pET15b)
T1 sequence (P08670 whole entry): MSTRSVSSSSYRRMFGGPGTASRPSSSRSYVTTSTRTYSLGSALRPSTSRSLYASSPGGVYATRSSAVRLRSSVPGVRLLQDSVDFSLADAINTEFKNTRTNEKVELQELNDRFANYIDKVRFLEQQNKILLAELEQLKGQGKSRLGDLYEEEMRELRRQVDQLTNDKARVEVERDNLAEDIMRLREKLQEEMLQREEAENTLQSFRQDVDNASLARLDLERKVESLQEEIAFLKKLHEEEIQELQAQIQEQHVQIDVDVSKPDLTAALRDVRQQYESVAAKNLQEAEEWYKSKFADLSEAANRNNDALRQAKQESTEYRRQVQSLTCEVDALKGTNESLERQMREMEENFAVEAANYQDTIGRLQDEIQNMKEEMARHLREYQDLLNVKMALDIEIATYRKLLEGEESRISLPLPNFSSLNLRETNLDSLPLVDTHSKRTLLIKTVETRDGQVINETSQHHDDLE
Method: (§1) Purified vimentin protein solutions (full length, coil 1 or coil 2 fragments) were diluted to 10-20 μg/mL concentration in PBS and seeded to a 96-well microplate with a 100 μL/well volume. After an overnight incubation at 4° C., the plate was emptied. Each well was then blocked with 200 μL of 1% BSA in PBS. The blocked plate was incubated for at least an overnight period at 4° C. and used within 1 week.

[2] = system: LNCaP prostate cancer cells; test: Murine prostate cancer xenograft model; format: in vivo, male Balb/c nu/nu mice; conditions: c2 0.1 mg/kg in saline thrice weekly, eight-week period, compared to vehicle
Method: Animals (male Balb/c nu/nu mice, aged six weeks, n=15 per group) were injected subcutaneously in the right rear flank with 1×10^6 LNCaP prostate cancer cells. Tumour size was monitored with calipers measuring tumour width and length and tumour volume calculated as described (Sved et al., Cancer Res, 2004. 64(19): p. 6934-40). When tumours were palpable and measured >5×5 mm, animals were randomised and entered into the study. […] Tumour volume data are mean±SE.

[3] = target: T2, vimentin coil 1 fragment (residues 96 to 253), recombinant, His-tagged (human, UniProt P08670 96-253); test: EIA, plate-bound vimentin coil 1, detection with 4A1-AP
T2 construct: Removal of the tag is not reported; also called coil 1 segment
T2 sequence (P08670 other isoform, or with tags, fused parts or gaps): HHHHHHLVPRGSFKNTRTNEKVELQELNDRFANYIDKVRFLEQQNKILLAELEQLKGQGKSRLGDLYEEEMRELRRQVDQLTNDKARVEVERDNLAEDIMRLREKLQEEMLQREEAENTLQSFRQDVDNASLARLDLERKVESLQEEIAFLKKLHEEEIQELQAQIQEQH
Method: as §1

Molecule: CCc1c(CC(N)=O)c2cc(OCCCP(=O)(O)O)ccc2n1Cc1ccccc1 [LY311727, [3-[[3-(2-amino-2-oxoethyl)-2-ethyl-1-(phenylmethyl)-1H-indol-5-yl]oxy]propyl]-phosphonic acid]
inhibition of hGIIA binding to full length vimentin [1]: c2 exhibited greater inhibition of hGIIA binding to full length vimentin than LY311727

Molecule: cyclo-((2-Nal)-Leu-Ser-(2-Nal)-Arg) (cyclo([2Nal]LS[2Nal]R); SMILES CC(C)C[C@@H]1NC(=O)[C@H](Cc2ccc3ccccc3c2)NC(=O)[C@H](CCCNC(=N)N)NC(=O)[C@H](Cc2ccc3ccccc3c2)NC(=O)[C@H](CO)NC1=O)
growth in tumour volume [2]: significantly reduced the growth in tumour volume; also recorded: potently slows the growth of prostate cancer

binding result [3]: no binding (tested: 5-1000 ng/mL hGIIA)
B1: human group IIA secreted phospholipase A2 (hGIIA), recombinant, purified from conditioned media of CHO cell line 2B1 (enzyme)
chain: NLVNFHRMIKLTTGKEAALSYGFYGCHCGVGGRGSPKDATDRCCVTHDCCYKRLEKRGCGTKFLSYKFSNSGSRITCAKQDSCRSQLCECDKAAATCFARNKTTYNKKYQYYSNKHCRGSTPRC
notes: this was not applied; also called human sPLA2-IIA; sPLA2

Reference: patent US20230270817A1, “VIMENTIN INHIBITORS” (Filamon Pty Ltd, priority 2020, published 2023)
